Results: patent US20240158385A1, “NOVEL COMPOUNDS” (Cerevance, Inc., priority 2021, published 2024)
Where two headings read alike, the source gives them in different places.

Target: T1, human KCNK13 (Homo sapiens, UniProt Q9HB14)
T1 construct: expressed in transfected cells
T1 sequence (Q9HB14 1-408): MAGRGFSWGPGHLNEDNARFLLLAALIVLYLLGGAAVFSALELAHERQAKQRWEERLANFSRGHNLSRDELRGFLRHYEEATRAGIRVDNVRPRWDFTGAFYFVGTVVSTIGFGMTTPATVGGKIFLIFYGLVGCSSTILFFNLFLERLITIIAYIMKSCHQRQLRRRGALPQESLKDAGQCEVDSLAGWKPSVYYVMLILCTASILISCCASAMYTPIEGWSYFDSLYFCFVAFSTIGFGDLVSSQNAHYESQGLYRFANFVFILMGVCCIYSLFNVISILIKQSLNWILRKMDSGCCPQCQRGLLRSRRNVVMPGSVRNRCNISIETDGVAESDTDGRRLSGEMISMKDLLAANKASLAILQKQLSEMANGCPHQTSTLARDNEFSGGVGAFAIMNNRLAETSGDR
Assay: KCNK13 antagonist activity, thallium (Tl+) flux FLIPR assay
Format: cell-based
Procedure: KCNK13 antagonist activity was determined by measuring changes in intracellular Thallium (Tl^+) concentrations using a Tl^+ sensitive fluorescent dye. The changes in fluorescent signal were monitored by Fluorescent Imaging Plate Reader (FLIPR™) technology available from Molecular Devices, LLC, US. KCNK13 mediated increases in intracellular Tl+concentration were readily detected by addition of a thallium sulfate stimulus. 24 hours prior to the assay, human embryonic kidney 293 cells (HEK 293 cells) stably expressing human KCNK13 were seeded in cell culture medium in PDL coated black, clear-bottom 384-well plates (commercially available from Corning Inc., 356663) and grown overnight at 37° C., 5% CO2. On the day of the assay, cell culture media was removed and cells were loaded with potassium dye (commercially sold by Molecular Devices, LLC, US, R8222) for 1 hour at room temperature in the dark. Test compounds (at 10 point half log concentration response curves from […]) were added to cells for 15 minutes prior to the addition of thallium sulfate to all wells. The IC50 values were determined from ten point concentration response curves. Curves were generated using the average of two wells for each data point.

[1] = HEK 293 cells stably expressing human KCNK13, Tl+ sensitive dye, FLIPR, compounds 15 minutes prior to thallium sulfate, 10 point half log curves from 10 PM, read-out: hKCNK13 IC50

SMILES	IC50 [1] [nM]	IC50 [nM]
Nc1nonc1-c1nc2ccc(F)c(F)c2n1Cc1cccnn1 (single isomer, unassigned) [Example 162, 4-(6,7-difluoro-1-(pyridazin-3-ylmethyl)-benzimidazol-2-yl)-1,2,5-oxadiazol-3-amine]	< 50	
Nc1nonc1-c1nc2c(F)c(F)ccc2n1Cc1cccnn1 (single isomer, unassigned) [Example 163, 4-(4,5-difluoro-1-(pyridazin-3-ylmethyl)-benzimidazol-2-yl)-1,2,5-oxadiazol-3-amine]	< 200	
Cc1ccc(Cn2c(-c3nonc3N)nc3c(F)cccc32)nn1 (single isomer, unassigned) [Example 169, 4-(4-fluoro-1-((6-methylpyridazin-3-yl)methyl)-benzimidazol-2-yl)-1,2,5-oxadiazol-3-amine]	< 200	
Cc1nonc1-c1nc2c(F)c(F)ccc2n1Cc1cccnn1 (single isomer, unassigned) [Example 171, 3-(4,5-difluoro-1-(pyridazin-3-ylmethyl)-benzimidazol-2-yl)-4-methyl-1,2,5-oxadiazole]	< 500	
Nc1nonc1-c1nc2c(F)cccc2n1Cc1ccc(C(F)F)nn1 (single isomer, unassigned) [Example 173, 4-(1-((6-(difluoromethyl)pyridazin-3-yl)methyl)-4-fluoro-benzimidazol-2-yl)-1,2,5-oxadiazol-3-amine]	< 500	
N#Cc1ccc(Cn2c(-c3nonc3N)nc3c(F)cccc32)nn1 (single isomer, unassigned) [Example 175, 6-((2-(4-amino-1,2,5-oxadiazol-3-yl)-4-fluoro-benzimidazol-1-yl)methyl)pyridazine-3-carbonitrile]	< 200	
COc1cc(Cn2c(-c3nonc3N)nc3c(F)cccc32)ccn1 (single isomer, unassigned) [Example 184, 4-(4-fluoro-1-((2-methoxypyridin-4-yl)methyl)-benzimidazol-2-yl)-1,2,5-oxadiazol-3-amine]	< 100	
Nc1nonc1-c1nc2cccc(F)c2n1Cc1cccnn1 [Example 6, 4-[7-fluoro-1-(pyridazin-3-ylmethyl)benzimidazol-2-yl]-1,2,5-oxadiazol-3-amine]	< 100	
N#Cc1ccc(Cn2c(-c3nonc3N)nc3c(F)cccc32)cn1 [Example 8, 5-[[2-(4-amino-1,2,5-oxadiazol-3-yl)-4-fluoro-benzimidazol-1-yl]methyl]pyridine-2-carbonitrile]	< 100	
Cc1nonc1-c1nc2c(F)cccc2n1Cc1cncnc1 [Example 9, 3-[4-fluoro-1-(pyrimidin-5-ylmethyl)benzimidazol-2-yl]-4-methyl-1,2,5-oxadiazole]	< 100	
COc1ccc(Cn2c(-c3nonc3N)nc3cccc(F)c32)cn1 [Example 10, 4-[7-fluoro-1-[(6-methoxypyridin-3-yl)methyl]benzimidazol-2-yl]-1,2,5-oxadiazol-3-amine]	< 100	
Cc1nonc1-c1nc2cccnc2n1Cc1cncnc1 [Example 13, 3-methyl-4-[3-(pyrimidin-5-ylmethyl)imidazo[4,5-b]pyridin-2-yl]-1,2,5-oxadiazole]	< 200	
COc1ccc(Cn2c(-c3nonc3N)nc3cccnc32)cn1 [Example 14, 4-[3-[(6-methoxypyridin-3-yl)methyl]imidazo[4,5-b]pyridin-2-yl]-1,2,5-oxadiazol-3-amine]	< 200	
Nc1nonc1-c1nc2cccnc2n1Cc1cncnc1 [Example 15, 4-[3-(pyrimidin-5-ylmethyl)imidazo[4,5-b]pyridin-2-yl]-1,2,5-oxadiazol-3-amine]		< 200
COc1ccc(Cn2c(-c3nonc3C)nc3cccnc32)cn1 [Example 16, 3-[3-[(6-methoxypyridin-3-yl)methyl]imidazo[4,5-b]pyridin-2-yl]-4-methyl-1,2,5-oxadiazole]	< 200	

Further lines, with some results ahead:

IC50 [1] [nM]	SMILES	IC50 [nM]
< 200	Nc1nsnc1-c1nc2c(F)cccc2n1Cc1cccnn1 (single isomer, unassigned) [Example 157, 4-(4-fluoro-1-(pyridazin-3-ylmethyl)-benzimidazol-2-yl)-1,2,5-thiadiazol-3-amine]	
< 100	Nc1nonc1-c1nc2cccc(F)c2n1Cc1ccc(C(F)(F)F)nn1 (single isomer, unassigned) [Example 166, 4-(7-fluoro-1-((6-(trifluoromethyl)pyridazin-3-yl)methyl)-benzimidazol-2-yl)-1,2,5-oxadiazol-3-amine]	
< 1000	Nc1nonc1-c1nc2c(F)cccc2n1Cc1ccc(C(F)(F)F)nn1 (single isomer, unassigned) [Example 167, 4-(4-fluoro-1-((6-(trifluoromethyl)pyridazin-3-yl)methyl)-benzimidazol-2-yl)-1,2,5-oxadiazol-3-amine]	
< 50	Cc1ccc(Cn2c(-c3nonc3N)nc3cccc(F)c32)nn1 (single isomer, unassigned) [Example 168, 4-(7-fluoro-1-((6-methylpyridazin-3-yl)methyl)-benzimidazol-2-yl)-1,2,5-oxadiazol-3-amine]	
< 100	Cc1nonc1-c1nc2ccc(F)c(F)c2n1Cc1cccnn1 (single isomer, unassigned) [Example 170, 3-(6,7-difluoro-1-(pyridazin-3-ylmethyl)-benzimidazol-2-yl)-4-methyl-1,2,5-oxadiazole]	
< 200	Nc1nonc1-c1nc2cccc(F)c2n1Cc1ccc(C(F)F)nn1 (single isomer, unassigned) [Example 172, 4-(1-((6-(difluoromethyl)pyridazin-3-yl)methyl)-7-fluoro-benzimidazol-2-yl)-1,2,5-oxadiazol-3-amine]	
< 100	N#Cc1ccc(Cn2c(-c3nonc3N)nc3cccc(F)c32)nn1 (single isomer, unassigned) [Example 174, 6-((2-(4-amino-1,2,5-oxadiazol-3-yl)-7-fluoro-benzimidazol-1-yl)methyl)pyridazine-3-carbonitrile]	
< 100	COc1cc(Cn2c(-c3nonc3N)nc3cccc(F)c32)ccn1 (single isomer, unassigned) [Example 183, 4-(7-fluoro-1-((2-methoxypyridin-4-yl)methyl)-benzimidazol-2-yl)-1,2,5-oxadiazol-3-amine]	
< 500	Nc1nonc1-c1nc2cncc(F)c2n1Cc1cccnn1 (single isomer, unassigned) [Example 187, 4-(7-fluoro-1-(pyridazin-3-ylmethyl)-1H-imidazo[4,5-c]pyridin-2-yl)-1,2,5-oxadiazol-3-amine]	
< 5000	Nc1nonc1-c1nc2c(F)cncc2n1Cc1cccnn1 (single isomer, unassigned) [Example 188, 4-(7-fluoro-3-(pyridazin-3-ylmethyl)-3H-imidazo[4,5-c]pyridin-2-yl)-1,2,5-oxadiazol-3-amine]	
< 100	Cc1nonc1-c1nc2ccc(F)c(F)c2n1Cc1cnc(C#N)nc1 [Example 1, 5-[[6,7-difluoro-2-(4-methyl-1,2,5-oxadiazol-3-yl)benzimidazol-1-yl]methyl]pyrimidine-2-carbonitrile]	
< 50	N#Cc1ncc(Cn2c(-c3nonc3N)nc3ccc(F)c(F)c32)cn1 [Example 2, 5-[[2-(4-amino-1,2,5-oxadiazol-3-yl)-6,7-difluoro-benzimidazol-1-yl]methyl]pyrimidine-2-carbonitrile]	
< 50	Nc1nonc1-c1nc2cccc(F)c2n1Cc1cncnc1 [Example 3, 4-[7-fluoro-1-(pyrimidin-5-ylmethyl)benzimidazol-2-yl]-1,2,5-oxadiazol-3-amine]	
< 100	Cc1nonc1-c1nc2ccc(F)c(F)c2n1Cc1cncnc1 [Example 7, 3-[6,7-difluoro-1-(pyrimidin-5-ylmethyl)benzimidazol-2-yl]-4-methyl-1,2,5-oxadiazole]	
< 200	N#Cc1ncc(Cn2c(-c3nonc3N)nc3cccnc32)cn1 [Example 11, 5-[[2-(4-amino-1,2,5-oxadiazol-3-yl)imidazo[4,5-b]pyridin-3-yl]methyl]pyrimidine-2-carbonitrile]	
< 200	Nc1nonc1-c1nc2cc(F)cnc2n1Cc1cncnc1 [Example 12, 4-[6-fluoro-3-(pyrimidin-5-ylmethyl)imidazo[4,5-b]pyridin-2-yl]-1,2,5-oxadiazol-3-amine]	
< 500	Cc1nonc1-c1nc2cccnc2n1Cc1ccc(C(F)(F)F)nc1 [Example 17, 3-methyl-4-[3-[[6-(trifluoromethyl)pyridin-3-yl]methyl]imidazo[4,5-b]pyridin-2-yl]-1,2,5-oxadiazole]	
< 500	Cc1nonc1-c1nc2cccnc2n1Cc1ccc(C#N)nn1 [Example 18, 6-[[2-(4-methyl-1,2,5-oxadiazol-3-yl)imidazo[4,5-b]pyridin-3-yl]methyl]pyridazine-3-carbonitrile]	
